# According to patent US20020082273A1, “Agents for use in the treatment of alzheimer's disease” (priority 1998, published 2002):
# “And” between values parts separate entries of the source, which are not always exact repeats. Equal entries are not always repeated. “Also recorded” adds a separate entry of the source. Where two headings read alike, the source gives them in different places.
# Experiments:
# [1] = tested on: Alzheimer's disease; details: clinical administration; cited from earlier work
# [2] = molecular target: T1, Aβ1-42 (Homo sapiens, UniProt P05067); test: Effect of chelators on metal reduction by Aβ1-42; assay type: biochemical; details: chelator 200 μM, Fe^3+ 10 μM, ambient oxygenation
# T1 sequence (P05067 672-713 limits assumed): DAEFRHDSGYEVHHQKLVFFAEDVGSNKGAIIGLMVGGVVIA
# [3] = in vivo, cited from earlier work
# [4] = molecular target: T1, Aβ1-42; test: Effect of metal chelators on H2O2 production from Aβ1-42; assay type: biochemical; details: 1 μM Fe^3+; chelator 200 μM
# [5] = Dissolving clioquinol: n-decane / PBS partition; assay type: physicochemical
# Method: Next, the phases were allowed to separate. The lower phase (PBS) was collected and filtered to remove the residue which had formed at the phase interface upon extraction with the organic solvent. The concentration of clioquinol in the PBS was determined to be 800 nanomolar. This number was arrived at based on two assumptions: […]
# [6] = with PBS at 1:1 mixture; assumption; cited from earlier work
# [7] = sustained treatment, dose as low as 10 mg/kg/day; cited from earlier work
# [8] = molecular target: T2, Aβ1-40 aggregates (Homo sapiens, UniProt P05067); test: Resolubilization of in vitro metal- or pH-induced Aβ aggregates on filter; assay type: biochemical; details: chelator 2 μM in TBS
# T2 construct: formed in vitro by the action of Cu^2+ or Zn^2+ upon Aβ1-40 was examined; purchased W. M. Keck Foundation Biotechnology Resource Laboratory (Yale University); host or cells: chemical synthesis
# T2 sequence (P05067 672-711 limits assumed): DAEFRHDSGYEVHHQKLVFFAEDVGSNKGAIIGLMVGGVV
# Method: Aggregates were transferred to a 0.2 μ nylon membrane by filtration. […] The membrane was fixed, probed with the anti-Aβ monoclonal antibody 6E10, and developed for exposure to ECL-film. […] Values are expressed as a percentage of Aβ signal after washing with TBS alone.
# Aβ (10 ng/well in buffered saline) aggregation was induced by addition of metals (5 μM) or acidic conditions (pH 5.5). Aggregates were transferred to a 0.2 μ nylon membrane by filtration. […] The membrane was then fixed, probed with anti-Aβ monoclonal antibody 6E10 and developed for exposure to ECL-film. […] Values are expressed as a % of Aβ signal remaining on the filter after washing with TBS alone.
# [9] = oral dose of 500 mg/kg, monkeys; cited from earlier work
# [10] = cited from earlier work
# [11] = Clioquinol in humans: expected plasma levels and side effect; assay type: in vivo
# [12] = oral dose of 200 mg/kg, rats; cited from earlier work
# [13] = oral dose of 200 mg/kg, dogs; cited from earlier work
# [14] = tested on: Aβ deposits of AD-affected brain; test: Extraction (solubilization) of Aβ from post-mortem AD brain tissue homogenates, western blot densitometry; assay type: biochemical, human
# [15] = cited from earlier work; remark: listed apart in the source
# [16] = tested on: brain-derived Aβ; test: Effect of added metals on solubility of brain-derived Aβ; assay type: biochemical, human; details: 2 mM in PBS
# Method: Aβ in the high speed supernatant was visualized as described above.
# The homogenates were spun at 100,000× g for 30 min and the supernatant discarded. […] Aβ in the soluble fraction was visualized as described above.
# [17] = H2O2 assay, production by Aβ peptides; assay type: biochemical; details: 1 μM Fe^3+, ambient O2, PBS pH 7.4, 1 hour 37° C.
# Method: Polypeptides (10 μM) or Vitamin C (10 μM), Fe^3+ or Cu^2+ (1 μM) and a H2O2 trapping agent-Tris(2-Carboxyethyl)Phosphine Hydrochloride (TCEP, Pierce, 50 μM)-were co-incubated in PBS buffer (300 μL), pH 7.4, for 1 hour at 37° C. Under identical conditions, catalase (Sigma, 100 U/mL) was substituted for the polypeptides, to serve as a control signal representing 0 μM H2O2. Following incubation, the unreacted TCEP was detected by 5,5-Dithio-bis(2-Nitrobenzoic acid) (DTNB, Sigma, 50 KLM) which generates 2 moles of the coloured product.
# [18] = Cu^2+-induced SDS-resistant polymerization of Aβ peptides, western blot image analysis; assay type: biochemical, human
# Method: Following incubation (37° C.), aliquots of each reaction (2 ng peptide) were collected at 0 d, 1 d, 3 d and 5 d and western blotted using anti-Aβ monoclonal antibody 8E10 (FIG. 9). Migration of the molecular size markers are indicated (kDa). […] It should be noted that other means of visualizing and/or determining the presence or absence of polymerization other than western blot analysis may be used. Such other means include but are not limited to density sedimentation by centrifugation of the samples.
# The generation of SDS-resistant Aβ polymers by metal ions was tested by incubating Cu^2+ (30 μM) or Zn^2+ (30 μM) at pH 6.6, 7.4 and 9.0 with Aβ1-40.
# (0-30 μM) at pH 7.4 and 6.6 and the samples analyzed by Western blot and the signal quantitated using the Fluoro-S Image Analysis System (Bio-Rad, Hercules, Calif.) as previously described.
# [19] = Metal reduction assay, Fe^3+ to Fe^2+; assay type: biochemical; details: 10 μM Fe^3+, PBS pH 7.4, 1 hr 37° C.
# Method: (§1) The metal reduction assay was performed using a 96-well microtiter plate (Costar) based upon a modification of established protocols (Landers, J. W., et al., Amer. Clin. Path. 29:590 (1958); Landers, J. W., et al., Clinica Chimica Acta 3:329 (1958)). Polypeptides (10 μM) or Vitamin C (100 μM), metal ions (10 μM, Fe(NO3)3 or Cu(NO3)2), and reduced metal ion indicators, bathophenanthrolinedisulfonic acid (BP, for Fe^2+, Sigma, 200 μM) or bathocuproinedisulfonic acid (BC, for Cu^+, Sigma, 200 μM), were coincubated in phosphate buffered saline (PBS), pH 7.4, for 1 hr at 37° C. The metal ion solutions were prepared by direct dilution in the buffer from their aqueous stocks purchased from National Institute of Standards and Technology (NIST). Absorbances were then measured at 536 mn (Fe^2+-BP complex) and 483 nm (Cu^+-BC complex), respectively, using a 96-well plate reader (SPECTRAmax 250, Molecular Devices, CA). In control samples, both metal ion and indicator were present to determine the background buffer signal. As a further control, both metal ion and peptide were present in the absence of indicator to estimate the contribution of light scattering due to turbidity to the absorbance reading at these wavelengths. The net absorbances (ΔA) at 536 nm or 483 nm were obtained by deducting the absorbances from these controls from the absorbances generated by the peptide and metal in the presence of the respective indicator.
# The concentrations of reduced metal ions (Fe^2+ or Cu^+) were quantified based on the formula: Fe^2+ or Cu^+ (˜M)=A*10^6/(L*M), where L is the measured equivalent vertical pathlength for a well of 300 μL volume as described in the instrument's specifications manual (0.856 cm for Fe^2+; 1.049 cm for Cu^+); M is the known molecular absorbance (M^−1 cm^−1) which is 7124 (for Fe^2+-BP complex) or 2762 (for Cu^+-BC complex).
# [20] = TBARS assay of OH.; assay type: biochemical; details: 10 μM peptide, 1 μM Fe^3+ or Cu^2+
# Method: All data points are means ±SD, n=3.
# The Thiobarbituric Acid-Reactive Substance (TBARS) assay for incubation mixtures with Fe^3+ or Cu^2+ was performed in a 96-well microtiter format modified from established protocols (Gutteridge et al. Biochim. Biophys. Acta 759: 38-41 (1983)). Aβ peptide species (10 μM) or Vitamin C (100 μM), were incubated with Fe^3+ or Cu^2+ (1 μM) and deoxyribose (7.5 mM, Sigma) in PBS, pH 7.4. Following incubation (37° C., 1 hour), glacial (17 M) acetic acid and 2-thiobarburic acid (1%, w/v in 0.05 M NaOH, Sigma) were added and heated (100° C., 10 min). The final mixtures were placed on ice for 1-3 minutes before absorbances at 532 nm were measured. The net absorbance change for each sample were obtained by deducting the absorbance from a control sample consisting of identical chemical components except for the Vitamin C or Aβ peptides.
# [21] = Metal reduction assay, Cu^2+ to Cu^+; assay type: biochemical; details: 10 μM Cu^2+, PBS pH 7.4, 1 hr 37° C.
# Method: Aβ (10 μM in PBS, pH 7.4 or 6.8, as shown) was incubated for 30 minutes (37° C.) in the presence of Cu^2+10 μM ±Zn^2+ 10 μM). […] levels (n=3, ±SD) were assayed against a standard curve.
# as §1, with “Polypeptides” for “The metal reduction assay was performed using a 96-well microtiter plate (Costar) based upon a modification of established protocols (Landers, J. W., et al., Amer. Clin. Path. 29:590 (1958); Landers, J. W., et al., Clinica Chimica Acta 3:329 (1958)). Polypeptides”, “Absorbances were then measured at 536 mn (Fe^2+-BP complex) and 483 nm (Cu^+-BC complex), respectively, using a 96-well plate reader (SPECTRAmax 250, Molecular Devices, CA).” left out
compound,measurement,setting,value
CC(=O)N(O)CCCCCNC(=O)CCC(=O)N(O)CCCCCNC(=O)CCC(=O)N(O)CCCCCN [DFO],effect on progression of AD,[1],effective in preventing the progression of AD
same,effect on production of Fe^2+ by Aβ1-42,[2],nearly halved
same,brain / blood-brain barrier penetration,[3],does not easily penetrate the blood-brain barrier
same,effect on H2O2 formation by Aβ1-42,[4],had no effect on H2O2 formation
"Oc1c(I)cc(Cl)c2cccnc12 [clioquinol, 5-chloro-7-iodo-8-hydroxyquinoline]",proportion dissolved in n-decane,[5]; 5.3 grams in 200 milliliter of n-decane,2%
same,concentration in PBS after partition from n-decane,"[5]; PBS, pH 7.4, based on two assumptions",0.8 µM
same,partitioning coefficient,[6],1/1750
same,neurological side effect,[7],subacute myclo-optic neuritis
same,Cu^2+-induced Aβ precipitate resolubilized,[8],85%
same,Zn^2+-induced Aβ precipitate resolubilized,[8],50%
same,pH 5.5-induced Aβ precipitate resolubilized,[8],10%
same,plasma levels,[9],20 to 70 µM
same,brain / blood-brain barrier penetration,[3],freely permeable into the brain
same,brain / blood-brain barrier penetration,[3]; listed as Clioquinol,crosses the blood brain barrier
same,removal of a bolus dose from the brain,[10]; in vivo,almost completely removed from the brain within three hours
same,safety,"[10]; many mammalian species, including rat and mouse",appears to be safe
same,blood levels,"[10]; within one hour of ingestion, rats and mice",1 to 10 µM
same,peak plasma levels,"[11]; 100 mg, three or four times a day",about 0.1 μM
same,expected plasma level,"[11]; humans, within 30 minutes of ingesting 10 mg/kg body weight",0.5 µM
same,plasma levels,[12],5 µM
same,plasma levels,[13],10 to 30 µM
same,% of total Aβ extracted,[14],1.85% and 4.5% and 3.4%
same,"% of total Aβ extracted, + PBS",[14],0.11% and 2.7% and 1.1%
same,Aβ recovered in the soluble phase compared to PBS alone,[14],doubling the recovery of Aβ; also recorded: more than twice
same,increase in solubilization of Aβ relative to PBS alone,[14],2.5 fold
same,excretion half life,[15]; in vivo,1 to 3 h
same,time to peak plasma levels,[15]; oral ingestion,≤ 30 min
[Mg] [magnesium],resolubilization of Aβ in tissue depleted of metals by EGTA,[16],led to resolubilization of the precipitated Aβ
"Aβ1-42: synthetic human Aβ peptide, residues 1-42",H2O2 generated,[17],10 µM
same,SDS-resistant polymers: Monomer,"[18]; pH 6.6, [Cu^2+] 0",61.0
same,SDS-resistant polymers: Pentamer,"[18]; pH 6.6, [Cu^2+] 0",3.8
same,SDS-resistant polymers: Tetramer,"[18]; pH 6.6, [Cu^2+] 0",8.6
same,SDS-resistant polymers: Trimer,"[18]; pH 6.6, [Cu^2+] 0",27.3
same,SDS-resistant polymers: Monomer,"[18]; pH 6.6, [Cu^2+] 0.5",52.1
same,SDS-resistant polymers: Tetramer,"[18]; pH 6.6, [Cu^2+] 0.5",12.0
same,SDS-resistant polymers: Trimer,"[18]; pH 6.6, [Cu^2+] 0.5",33.8
same,SDS-resistant polymers: Monomer,"[18]; pH 6.6, [Cu^2+] 5",59.6
same,SDS-resistant polymers: Tetramer,"[18]; pH 6.6, [Cu^2+] 5",7.1
same,SDS-resistant polymers: Monomer,"[18]; pH 6.6, [Cu^2+] 10",52.3
same,SDS-resistant polymers: Pentamer,"[18]; pH 6.6, [Cu^2+] 10",2.2
same,SDS-resistant polymers: Tetramer,"[18]; pH 6.6, [Cu^2+] 10",13.6
same,SDS-resistant polymers: Monomer,"[18]; pH 7.4, [Cu^2+] 0",76.61
same,SDS-resistant polymers: Pentamer,"[18]; pH 7.4, [Cu^2+] 0",1.9
same,SDS-resistant polymers: Tetramer,"[18]; pH 7.4, [Cu^2+] 0",5.5
same,SDS-resistant polymers: Trimer,"[18]; pH 7.4, [Cu^2+] 0",16.0
same,SDS-resistant polymers: Monomer,"[18]; pH 7.4, [Cu^2+] 0.5",70.7
same,SDS-resistant polymers: Pentamer,"[18]; pH 7.4, [Cu^2+] 0.5",2.5
same,SDS-resistant polymers: Tetramer,"[18]; pH 7.4, [Cu^2+] 0.5",6.2
same,SDS-resistant polymers: Trimer,"[18]; pH 7.4, [Cu^2+] 0.5",20.5
same,SDS-resistant polymers: Monomer,"[18]; pH 7.4, [Cu^2+] 1",64.9
same,SDS-resistant polymers: Pentamer,"[18]; pH 7.4, [Cu^2+] 1",4.0
same,SDS-resistant polymers: Tetramer,"[18]; pH 7.4, [Cu^2+] 1",7.4
same,SDS-resistant polymers: Trimer,"[18]; pH 7.4, [Cu^2+] 1",23.6
same,SDS-resistant polymers: Monomer,"[18]; pH 7.4, [Cu^2+] 5",56.1
same,SDS-resistant polymers: Pentamer,"[18]; pH 7.4, [Cu^2+] 5",4.1
same,SDS-resistant polymers: Tetramer,"[18]; pH 7.4, [Cu^2+] 5",8.7
same,SDS-resistant polymers: Monomer,"[18]; pH 7.4, [Cu^2+] 10",55.1
same,SDS-resistant polymers: Pentamer,"[18]; pH 7.4, [Cu^2+] 10",4.3
same,SDS-resistant polymers: Tetramer,"[18]; pH 7.4, [Cu^2+] 10",10.3
same,SDS-resistant polymers: Monomer,"[18]; pH 7.4, [Cu^2+] 30",57.1
same,SDS-resistant polymers: Pentamer,"[18]; pH 7.4, [Cu^2+] 30",4.2
same,SDS-resistant polymers: Tetramer,"[18]; pH 7.4, [Cu^2+] 30",8.3
same,reduction of available Fe^3+,[19],50%
"rat Aβ1-40: rat Aβ with substitutions R5→G, Y10→F, H13→R compared to human Aβ (DAEFGHDSGFEVRHQKLVFFAEDVGSNKGAIIGLMVGGVV; Amyloid-beta protein 40; UniProt P08592 672-711, looked up)",OH. generation (TBARS),[20],did not generate OH
same,reduction of available Cu^2+,[21],reduced no Cu^2+
same,reduction of available Fe^3+,[19],did not significantly facilitate the reduction of Fe^3+
vitamin E,effect on progression of AD,[1],delay the progression of clinical AD
